ChEMBL document CHEMBL4421731, “Small molecules inhibiting oncoprotein Myc” (2016)
Values belong to the molecule of their own block, whether it stands above or below them. The source made the active and inactive calls. The calls are words filed in the database; no cut-off is given here.

What was measured:
[1] = tested on: SK-MEL-103; experiment: Growth inhibition of human SK-MEL-103 cells; format: functional, cell-based
[2] = tested on: SK-MEL19; experiment: Growth inhibition of human SK-MEL-19 cells; format: functional, cell-based
[3] = Intrinsic clearance in mouse liver microsomes at 1 uM in presence of NADPH by LC-MS/MS analysis; format: ADME, Microsome
[4] = Intrinsic clearance in human liver microsomes at 1 uM in presence of NADPH by LC-MS/MS analysis; format: ADME, Microsome
[5] = target: T1, N-myc proto-oncogene protein (Homo sapiens) (UniProt P04198); experiment: Inhibition of N-Myc (unknown origin) expressed in rat Rat1A cells assessed as inhibition of cell growth incubated for 72 hrs by methylene blue staining based assay
T1 sequence (whole entry): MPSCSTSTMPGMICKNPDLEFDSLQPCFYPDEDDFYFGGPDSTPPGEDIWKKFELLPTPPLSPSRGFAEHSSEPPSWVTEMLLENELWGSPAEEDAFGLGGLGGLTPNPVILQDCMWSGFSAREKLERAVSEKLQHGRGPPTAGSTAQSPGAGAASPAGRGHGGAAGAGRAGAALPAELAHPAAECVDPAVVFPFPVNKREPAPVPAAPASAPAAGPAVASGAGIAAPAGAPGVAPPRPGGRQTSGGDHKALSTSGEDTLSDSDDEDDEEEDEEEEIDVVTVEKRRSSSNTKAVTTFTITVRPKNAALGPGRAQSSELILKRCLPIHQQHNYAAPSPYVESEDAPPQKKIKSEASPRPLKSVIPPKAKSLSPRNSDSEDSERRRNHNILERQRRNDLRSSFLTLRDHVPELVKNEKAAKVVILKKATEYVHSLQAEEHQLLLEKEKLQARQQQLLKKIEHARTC

[6] = target: Myc proto-oncogene protein (Homo sapiens) (UniProt P01106); experiment: Inhibition of C-Myc (unknown origin) expressed in rat Rat1A cells assessed as inhibition of cell growth incubated for 72 hrs by methylene blue staining based assay
Myc proto-oncogene protein (Homo sapiens), sequence (P01106 whole entry): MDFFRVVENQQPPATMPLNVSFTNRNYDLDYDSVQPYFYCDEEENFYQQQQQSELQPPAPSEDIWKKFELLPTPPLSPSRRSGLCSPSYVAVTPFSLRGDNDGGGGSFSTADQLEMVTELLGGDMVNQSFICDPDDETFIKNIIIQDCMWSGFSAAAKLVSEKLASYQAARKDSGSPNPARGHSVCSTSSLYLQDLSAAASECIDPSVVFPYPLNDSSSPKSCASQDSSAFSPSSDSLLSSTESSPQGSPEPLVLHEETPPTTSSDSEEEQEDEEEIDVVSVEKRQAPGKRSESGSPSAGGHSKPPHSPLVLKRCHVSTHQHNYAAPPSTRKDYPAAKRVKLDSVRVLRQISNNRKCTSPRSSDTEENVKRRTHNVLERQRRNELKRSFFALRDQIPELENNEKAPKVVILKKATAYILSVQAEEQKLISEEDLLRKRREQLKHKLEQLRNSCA

[7] = Toxicity in athymic nude mouse xenografted with human SK-MEL-103 cells assessed as induction of distress at 50 mg/kg, ip dosed daily for 14 days dosed via Captisol formulation and measured on day 16; format: organism-based; details: in vivo, 336 h
[8] = Toxicity in athymic nude mouse xenografted with human SK-MEL-103 cells assessed as induction of weight loss at 50 mg/kg, ip dosed daily for 12 days dosed via Captisol formulation (reference value: 100 +/- 10%%); format: organism-based; details: in vivo, 288 h
[9] = Toxicity in athymic nude mouse xenografted with human SK-MEL-103 cells assessed as induction of weight loss at 50 mg/kg, ip dosed daily for 3 days dosed via Captisol formulation (reference value: 100 +/- 10%%); format: organism-based; details: in vivo, 72 h
[10] = tested on: SK-MEL-103; experiment: Antitumor activity against human SK-MEL-103 cells xenografted in athymic nude mouse assessed as improvement in mouse survival at 50 mg/kg, ip dosed daily for 4 days dosed via Captisol formulation; format: functional, organism-based
[11] = Toxicity in athymic nude mouse xenografted with human SK-MEL-103 cells assessed as induction of weight loss at 50 mg/kg, ip dosed daily for 10 days dosed via Captisol formulation (reference value: 100 +/- 10%%); format: organism-based; details: in vivo, 240 h
[12] = tested on: SK-MEL-103; experiment: Antitumor activity against human SK-MEL-103 cells xenografted in athymic nude mouse assessed as inhibition of tumor growth at 50 mg/kg, ip dosed daily; format: functional, organism-based
[13] = tested on: SK-MEL-103; experiment: Antitumor activity against human SK-MEL-103 cells xenografted in athymic nude mouse assessed as improvement in mouse survival at 50 mg/kg, ip dosed daily for 14 days dosed via Captisol formulation; format: functional, organism-based
[14] = tested on: SK-MEL-103; experiment: Antitumor activity against human SK-MEL-103 cells xenografted in athymic nude mouse assessed as initial tumor level at 50 mg/kg, ip dosed daily for 14 days dosed via Captisol formulation (reference value: 80%); format: functional
[15] = target: Myc proto-oncogene protein (Homo sapiens) (UniProt P01106); experiment: Inhibition of Myc in human melanoma cells assessed as reduction in Myc-transactivated thymidylate synthase gene expression; format: cell-based
[16] = Toxicity in mouse xenografted with human melanoma cells measured up to 8 days; details: 192 h
[17] = tested on: HO15.19; experiment: Induction of cell cycle arrest in rat HO15.19 cells assessed as accumulation at G0/G1 phase at 3 uM by flow cytometry (reference value: 50.76%); format: cell-based; details: ho15.19, 3 µM
[18] = target: Myc proto-oncogene protein (Homo sapiens) (UniProt P01106); experiment: Inhibition of C-Myc in human melanoma (#9) cells assessed as reduction in fumarate levels by [13C]-glucose labeling based assay; format: cell-based
[19] = target: Myc proto-oncogene protein (Homo sapiens) (UniProt P01106); experiment: Inhibition of C-Myc in human melanoma (#9) cells assessed as reduction in pyruvate levels by [13C]-glucose labeling based assay; format: cell-based
[20] = Toxicity in athymic nude mouse xenografted with human SK-MEL-103 cells assessed as induction of weight loss at 50 mg/kg, ip dosed daily for 14 days dosed via Captisol formulation (reference value: 100 +/- 10%%); format: organism-based; details: in vivo, 336 h
[21] = Toxicity in athymic nude mouse xenografted with human SK-MEL-103 cells assessed as induction of sickness at 50 mg/kg, ip dosed daily for 14 days dosed via Captisol formulation and measured on day 16; format: organism-based; details: in vivo, 336 h
[22] = Toxicity in athymic nude mouse xenografted with human SK-MEL-103 cells assessed as induction of weight loss at 50 mg/kg, ip dosed daily for 14 days dosed via Captisol formulation; format: organism-based; details: in vivo, 336 h
[23] = Toxicity in athymic nude mouse xenografted with human SK-MEL-103 cells assessed as induction of weight loss at 50 mg/kg, ip dosed daily for 5 days dosed via Captisol formulation (reference value: 100 +/- 10%%); format: organism-based; details: in vivo, 120 h
[24] = tested on: Melanoma cell line; experiment: Antitumor activity against human melanoma cells xenografted in mouse assessed as inhibition of tumor growth measured up to 8 days; format: functional, cell-based
[25] = target: Myc proto-oncogene protein (Homo sapiens) (UniProt P01106); experiment: Inhibition of Myc in human melanoma cells assessed as increase in Myc-repressed p27kip1 gene expression; format: cell-based
[26] = target: Myc proto-oncogene protein (Homo sapiens) (UniProt P01106); experiment: Inhibition of C-Myc in human SK-MEL-103 cells assessed as reduction in MYC-dependent transcriptional activation incubated for 48 hrs by microarray relative to control; format: cell-based
[27] = target: Myc proto-oncogene protein (Homo sapiens) (UniProt P01106); experiment: Inhibition of C-Myc (unknown origin) expressed in rat HO15.19 cells assessed as accumulation at G0/G1 phase at 3 uM by flow cytometry (reference value: 35.43%); format: cell-based; set-up: scale not given: the % may be the effect or the level left
[28] = target: Myc proto-oncogene protein (Homo sapiens) (UniProt P01106); experiment: Inhibition of C-Myc in human melanoma (#9) cells assessed as reduction in lactate levels by [13C]-glucose labeling based assay; format: cell-based
[29] = Toxicity in athymic nude mouse xenografted with human SK-MEL-103 cells assessed as induction of weight loss at 50 mg/kg, ip dosed daily for 1 days dosed via Captisol formulation (reference value: 100 +/- 10%%); format: organism-based; details: in vivo, 24 h
[30] = target: Myc proto-oncogene protein (Homo sapiens) (UniProt P01106); experiment: Inhibition of C-Myc in human melanoma (#9) cells assessed as reduction in serine levels by [13C]-glucose labeling based assay; format: cell-based
[31] = tested on: BE(2)-C; experiment: Growth inhibition of human BE(2)-C cells; format: functional, cell-based
[32] = species: Homo sapiens; experiment: Growth inhibition of N-Myc overexpressing human NBL-S cells; format: functional
[33] = species: Homo sapiens; experiment: Growth inhibition of N-Myc amplified human NBL-WN cells; format: functional
[34] = tested on: Melanoma cell line; experiment: Growth inhibition of human melanoma (#10) cells; format: functional, cell-based
[35] = species: Homo sapiens; experiment: Growth inhibition of human SHEP cells; format: functional
[36] = tested on: Melanoma cell line; experiment: Growth inhibition of human melanoma (#3) cells; format: functional, cell-based
[37] = tested on: IMR-32; experiment: Growth inhibition of human IMR32 cells; format: functional, cell-based
[38] = tested on: SH-SY5Y; experiment: Growth inhibition of human SH-SY5Y cells; format: functional, cell-based
[39] = tested on: Melanocyte; experiment: Growth inhibition of human melanocytes; format: cell-based

SMILES: O=[N+]([O-])c1ccc(CCNC2CC3CCC2C3)cc1 (centres undefined)
growth inhibition (GI) [1]: inactive | growth inhibition (GI) [2]: inactive

intrinsic clearance [3]: 300 µL/min/mg | intrinsic clearance [4]: 120 µL/min/mg | inhibition [5]: Active | inhibition [6]: Active
SMILES: CCN(CC)Cc1c(C(=O)N/N=C/c2ccc(N(CC)CC)cc2O)nnn1-c1nonc1N

intrinsic clearance [3]: 270 µL/min/mg | intrinsic clearance [4]: 110 µL/min/mg | inhibition [15]: Active | Activity [17]: 54.9% | inhibition [18]: Active | inhibition [19]: Active | inhibition [25]: Active | inhibition [26]: Active | Activity [27]: 49.7% | inhibition [28]: Active | inhibition [30]: Active
SMILES: CCN(CC)c1ccc(/C=N/NC(=O)Cn2nnc(-c3ccccc3)n2)c(O)c1
Activity [7]: Non-Toxic | Activity [8]: 113.3% | Activity [9]: 103.3% | TGI [10]: inactive | Activity [11]: 111.4% | TGI [12]: Active | Activity [13]: Active | Activity [14]: <50% | Activity [16]: Non-Toxic | Activity [20]: 114.5% | Activity [21]: Non-Toxic | Activity [22]: Non-Toxic | Activity [23]: 103.8% | TGI [24]: Active | Activity [29]: 100%

inhibition [15]: Active | inhibition [25]: Active
SMILES: CC(C)(C)c1cc(C(=O)N/N=C/c2ccc(O)cc2O)n(-c2ccccc2)n1
growth inhibition (GI) [31]: Active | growth inhibition (GI) [32]: Active | growth inhibition (GI) [33]: Active | growth inhibition (GI) [34]: Active | growth inhibition (GI) [35]: Active | growth inhibition (GI) [36]: Active | growth inhibition (GI) [37]: Active | growth inhibition (GI) [38]: Active | growth inhibition (GI) [39]: Non-Toxic

inhibition [15]: Active | inhibition [25]: Active
SMILES: CC(=O)NC(c1ccc2c(c1)OCO2)c1ccc2cccnc2c1O (centres undefined)

inhibition [15]: Active | inhibition [25]: Active
SMILES: C=CCc1cccc(/C=N/NC(=O)c2cc(C(C)(C)C)n[nH]2)c1O

inhibition [15]: Active | inhibition [25]: Active
SMILES: O=C(N/N=C/c1c(O)ccc2ccccc12)c1cc(C23CC4CC(CC(C4)C2)C3)n[nH]1

intrinsic clearance [3]: 200 µL/min/mg | intrinsic clearance [4]: 47 µL/min/mg | inhibition [5]: Active | inhibition [6]: Active
SMILES: CCN(CC)c1ccc(/C=N/NC(=O)c2cc(C)n[nH]2)c(O)c1

intrinsic clearance [3]: 690 µL/min/mg | intrinsic clearance [4]: 87 µL/min/mg | inhibition [5]: Active | inhibition [6]: Active
SMILES: CCN(CC)c1ccc(/C=N\NC(=O)c2nnn(-c3nonc3N)c2CN2CCCCCC2)c(O)c1

SMILES: CCCOc1ccc(N2C(=O)CC(N3CCC(C(=O)O)CC3)C2=O)cc1 (centres undefined)
growth inhibition (GI) [1]: inactive | growth inhibition (GI) [2]: inactive
